Legend:
Escherichia coli = assay: Minimum inhibitory concentration, series dilution test; assay type: cell-based
Method: (§1) The minimum inhibitory concentration (MIC) of eugenol acetate was determined in the series dilution test against various bacteria.

Fusobacterium nucleatum = assay: as above; assay type: cell-based
Method: as §1

Porphyromonas gingivalis = assay: as above; assay type: cell-based
Method: as §1

Prevotella intermedia = assay: as above; assay type: cell-based
Method: as §1

Pseudomonas aeruginosa = assay: as above; assay type: cell-based
Method: as §1

Staphylococcus aureus = assay: as above; assay type: cell-based
Method: as §1

Streptococcus mutans = assay: as above; assay type: cell-based
Method: as §1

[1] = test system: total number of germs in the oral saliva samples; assay: Total number of germs in oral saliva samples; assay type: cell-based; conditions: 1,000 ppm
[2] = test system: liquid medium inoculated with fresh morning saliva; assay: In vitro test for reduction of bad breath (inoculated medium smelled by a panel of testers)

C=CCc1ccc(OC(C)=O)c(OC)c1 [eugenol acetate, 4-allyl-2-methoxyphenyl acetate]
MIC (Escherichia coli): > 1000 µg/mL | Type (Escherichia coli): no action up to 1,000 ppm | MIC (Fusobacterium nucleatum): 500 µg/mL | Type (Fusobacterium nucleatum; 500 ppm): bactericidal action | MIC (Porphyromonas gingivalis): 1000 µg/mL | MIC (Prevotella intermedia): 500 µg/mL | Type (Prevotella intermedia; 500 ppm): bactericidal action | MIC (Pseudomonas aeruginosa): > 1000 µg/mL | Type (Pseudomonas aeruginosa): no action up to 1,000 ppm | MIC (Staphylococcus aureus): > 1000 µg/mL | Type (Staphylococcus aureus): no action up to 1,000 ppm | MIC (Streptococcus mutans): > 1000 µg/mL | Type (Streptococcus mutans): no action up to 1,000 ppm | reduction in respect of the total number of germs [1]: no significant reduction | smell after the incubation time ([2]; 0.01% added to inoculated samples, 37 °C for some days): no smell | smell at sensory evaluation ([2]; 0.05% added to the inoculated medium only one hour before the sensory evaluation): unpleasant mixed smell of bad breath and a weak eugenol acetate note | minimum active concentration ([2]; inoculated samples, no smell after incubation): 0.01% | smell after the incubation time ([2]; significantly lower concentrations than 0.01%): a changed intrinsic smell or a mixed smell was perceptible in some cases

From US20080085246A1, “Use of Eugenol Acetate as an Agent Against Bad Breath” (SYMRISE GMBH & CO. KG, priority 2004, published 2008)
